Measurements as given in patent publication US20110060026A1, “Indoles Active on CRTH2 Receptor” (priority 2008, published 2011).

Biological target: T1, CRTH2 receptor (Homo sapiens, UniProt Q9Y5Y4)
T1 construct: expressed in transfected cells; host or cells: HEK (human embryonic kidney) cells, membrane preparation
T1 sequence (Q9Y5Y4 1-395): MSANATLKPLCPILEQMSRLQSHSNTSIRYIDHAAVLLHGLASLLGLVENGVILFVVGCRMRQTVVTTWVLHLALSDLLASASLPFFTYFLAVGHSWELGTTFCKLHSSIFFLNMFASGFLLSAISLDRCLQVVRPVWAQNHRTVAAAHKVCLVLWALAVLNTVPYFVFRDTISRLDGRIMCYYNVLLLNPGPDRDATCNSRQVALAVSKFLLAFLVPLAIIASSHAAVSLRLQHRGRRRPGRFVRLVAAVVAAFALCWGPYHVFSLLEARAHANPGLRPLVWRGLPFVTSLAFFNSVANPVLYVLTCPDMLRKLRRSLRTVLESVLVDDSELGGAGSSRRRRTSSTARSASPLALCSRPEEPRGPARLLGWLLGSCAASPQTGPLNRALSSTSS
Experiment: CRTH2 radioligand binding assay ([3H]-PGD2 displacement, SPA)
Settings: HEK cell membranes expressing the CRTH2 receptor, 1 nM [3H]-PGD2; Ki from IC50 by Cheng-Prusoff equation
Experimental: Compounds of the invention were tested using the following biological test method to determine their ability to displace PGD2 from the CRTH2 receptor.
CRTH2 Radioligand Binding Assay
The receptor binding assay is performed in a final volume of 200 μL binding buffer [10 mM BES (pH 7.4), 1 mM EDTA, 10 mM manganese chloride, 0.01% BSA] and 1 nM [^3H]-PGD2 (Amersham Biosciences UK Ltd). Ligands are added in assay buffer containing a constant amount of DMSO (1% by volume). Total binding is determined using 1% by volume of DMSO in assay buffer and non-specific binding is determined using 10 μM of unlabeled PGD2 (Sigma). Human embryonic kidney (HEK) cell membranes (3.5 μg) expressing the CRTH2 receptor are incubated with 1.5 mg wheatgerm agglutinin SPA beads and 1 nM [^3H]-PGD2 (Amersham Biosciences UK Ltd) and the mixture incubated for 3 hours at room temperature. Bound [^3H]-PGD2 is detected using a Microbeta TRILUX liquid scintillation counter (Perkin Elmer). Compound IC50 value is determined using a 6-point dose response curve in duplicate with a semi-log compound dilution series. IC50 calculations are performed using Excel and XLf it (Microsoft), and this value is used to determine a Ki value for the test compound using the Cheng-Prusoff equation.

## Cc1c(CC(=O)O)c2cc(F)ccc2n1Cc1ccccc1S(=O)(=O)c1ccc(F)cc1 [Example 1, {5-fluoro-1-[2-(4-fluorobenzenesulfonyl)benzyl]-2-methyl-1H-indol-3-yl}acetic acid]
  Ki: 66 nM
